US10035792B2, “Resorcinol derivative as HSP90 inhibitor” (priority 2015, dated 2018)

Assays:
HSP90α = HSP90α (Homo sapiens (Human), UniProt P07900); experiment: Fluorescence polarization (FP) HSP90-alpha target binding assay; conditions: fluorescence polarization; read-out: Target binding ability HSP90α FP IC50
Source text: In the present invention, the method of fluorescence polarization (FP) was used to establish the screening platform for HSP90-alpha inhibitors. The principle based on is to calculate fluorescence polarization values in horizontal and vertical directions by detecting molecular weight changes before and after interaction of fluorescent labeled small molecules with other molecules, in use for correlation analysis. If binding equilibria between the fluorescent labeled small molecule and the macromolecule is established, it moves slowly when excited, and the fluorescence polarization values measured will increase. If the fluorescent labeled small molecule binding to the macromolecule is replaced with other ligands, its rotational or inversional speed in free state will become faster, the emitted light would be depolarized with respect to the exciting light plane, and thus the polarized light value measured will decrease, so as to calculate the polarization value of the sample (the unit of polarization value is mP).
The fluorescent labeled small molecule used in the present invention was VER-00051001 (synthesized by reference to the synthetic method described in JMC, 2008, 51, 196-218). The reaction was carried out in a 384-well black plate, using the reaction hydrophobic protein HFB buffer: 100 mM Tris.Cl pH 7.4, 20 mM KCl, 6 mM MgCl2, 5 μg/mL BSA, 25 nM full-length Hsp90U, 10 nM VER-51001. The volume of the reaction system was […], containing 5 nM GM-BODIPY (geldanamycin), 30 nM HSP90 and the test small molecular compound or DMSO (dimethyl sulfoxide), wherein the DMSO content was 2% o. Additional two group wells were established, wherein the wells only added with HFB buffer were used as blank controls, and the wells further added with 5 nM GM-BODIPY were used as negative controls. The reaction was carried out at 4° C. for 12-16 hours. The mP value was measured by Biotek microplate reader at 485 nm of excitation wavelength and 535 nm of emission wavelength. The inhibition rate was calculated using the following equation: (Compound-free mP−Compound mP)/(Compound-free mP−negative control mP)×100%

[1] = tested on: human lung cancer cell line A549; experiment: Tumor cell growth inhibition, SRB staining, A549; assay type: cell-based; conditions: A549, 72 h
Protocol: The growth inhibition assay of tumor cells was detected by sulforhodamine B (SRB) staining method. The specific steps were as follows: inoculating human colon cancer cell line HCT116 and human lung cancer cell line A549 (purchased from American Type Culture Collection, ATCC) at the logarithmic growth phase into a 96-well micro culture plate at an appropriate concentration of 4000 cells/well, 100 μL for each well; after culturing overnight, adding with the compound at different concentrations (100, 10, 1, 0.1, 0.01 μM) to react for 72 h, wherein triplicate wells were set up for each concentration, and solvent control wells with the corresponding concentration and zero wells without cells were also set up. After the completion of the reaction, the culture medium was removed from the adherent cells, the later was added with 10% (w/v) trichloroacetic acid (100 μL/well) at 4° C. to fix for 1 h, and then washed five times with distilled water. After drying at room temperature, 100 μL of SRB solution (4 mg/mL, dissolved in 1% glacial acetic acid) was added into each well, followed by incubation and staining for 15 min at room temperature. The uncombined SRB was removed by washing five times with 1% glacial acetic acid. After drying at room temperature, 100 μL of 10 mM Tris solution was added into each well, and the optical density (OD) at 515 nm was measured by a […] microplate reader. The inhibition rate of the drug to tumor cell growth was calculated according to the following equation: Inhibition rate (%)=(OD of control well-OD of drug well)/OD of control well×100%. The experiment was repeated twice.

| SMILES | IC50 (HSP90α) | EC50 [1] |
| --- | --- | --- |
| COCCCNC(=O)c1noc(-c2cc(C(C)C)c(O)cc2O)c1-c1ccc2c(c1)CCN(C)C2 [Example 42, 5-(2,4-dihydroxyl-5-isopropylphenyl)-N-(3-methoxypropyl)-4-(2-methyl-1,2,3,4-tetrahydroisoquinolin-6-yl)isoxazole-3-carboxamide] | 20 to 100 nM | 20 to 100 nM |
| Cc1nnc(-c2noc(-c3cc(C(C)C)c(O)cc3O)c2-c2ccc3c(c2)CCN(C)C3)[nH]1 [Example 15, 4-isopropyl-6-[4-(2-methyl-1,2,3,4-tetrahydroisoquinolin-6-yl)-3-(5-methyl-4H-1,2,4-triazol-3-yl)isoxazol-5-yl]benzene-1,3-diol] | 20 to 100 nM | > 100 nM |
| CCNC(=O)c1noc(-c2cc(C(C)C)c(O)cc2O)c1-c1ccc2c(c1)CCN(CCCOC)C2 [Example 47, 5-(2,4-dihydroxyl-5-isopropylphenyl)-N-ethyl-4-(2-(3-methoxypropyl)-1,2,3,4-tetrahydroisoquinolin-6-yl)isoxazole-3-carboxamide] | 20 to 100 nM | 20 to 100 nM |
| CCNC(=O)c1noc(-c2cc(C(C)C)c(O)cc2O)c1-c1ccc2c(c1)CCN(C(=O)CN(C)C)C2 [Example 59, 5-(2,4-dihydroxyl-5-isopropylphenyl)-4-(2-(2-(dimethylamino)acetyl)-1,2,3,4-tetrahydroisoquinolin-6-yl)-N-ethylisoxazole-3-carboxamide] | 20 to 100 nM | > 100 nM |
| CCNC(=O)c1noc(-c2cc(C(C)C)c(O)cc2O)c1-c1ccc2c(c1)CCN(CCC(=O)N(C)C)C2 [Example 56] | 20 to 100 nM | > 100 nM |
| CC(C)NC(=O)c1onc(-c2cc(C(C)C)c(O)cc2O)c1-c1ccc2c(c1)CCN(C)C2 [Example 63, 3-(2,4-dihydroxyl-5-isopropylphenyl)-N-isopropyl-4-(2-methyl-1,2,3,4-tetrahydroisoquinolin-6-yl)isoxazole-5-carboxamide] | < 20 nM | < 20 nM |
| CCCNC(=O)c1noc(-c2cc(C(C)C)c(O)cc2O)c1-c1ccc2c(c1)CCN(C)C2 [Example 37, 5-(2,4-dihydroxyl-5-isopropylphenyl)-N-propyl-4-(2-methyl-1,2,3,4-tetrahydroisoquinolin-6-yl)isoxazole-3-carboxamide] | 20 to 100 nM | 20 to 100 nM |
| CCNC(=O)c1noc(-c2cc(C(C)C)c(O)cc2O)c1-c1cc2c(s1)CCN(C)C2 [Example 9, 5-(2,4-dihydroxyl-5-isopropylphenyl)-N-ethyl-4-(5-methyl-4,5,6,7-tetrahydrothieno[3,2-c]pyridin-2-yl)isoxazole-3-carboxamide] | 20 to 100 nM | 20 to 100 nM |
| CCNC(=O)c1noc(-c2cc(C(C)C)c(O)cc2O)c1-c1ccc2c(c1)CCN(C(=O)CCN1CCOCC1)C2 [Example 58, 5-(2,4-dihydroxyl-5-isopropylphenyl)-N-ethyl-4-(2-(3-morpholino-4-yl-propionyl)-1,2,3,4-tetrahydroisoquinolin-6-yl)isoxazole-3-carboxamide] | 20 to 100 nM | > 100 nM |
| CCNC(=O)c1onc(-c2cc(C(C)C)c(O)cc2O)c1-c1ccc2c(c1)CCN(C)CC2 [Example 27, 3-(2,4-dihydroxyl-5-isopropylphenyl)-N-ethyl-4-(3-methyl-2,3,4,5-tetrahydro-1H-benzo[d]azepin-7-yl)isoxazole-5-carboxamide] | < 20 nM | < 20 nM |
| CCNC(=O)c1noc(-c2cc(C(C)C)c(O)cc2O)c1-c1cc2n(c1)CCN(C)C2 [Example 23, 5-(2,4-dihydroxyl-5-isopropylphenyl)-N-ethyl-4-(2-methyl-1,2,3,4-tetrahydropyrrolo[1,2-a]pyrazin-7-yl)isoxazole-3-carboxamide] | < 20 nM | 20 to 100 nM |
| CCNC(=O)c1noc(-c2cc(C(C)C)c(O)cc2O)c1-c1ccc2c(c1)CCN(CCOC)C2 [Example 45, 5-(2,4-dihydroxyl-5-isopropylphenyl)-N-ethyl-4-(2-(2-methoxyethyl)-1,2,3,4-tetrahydroisoquinolin-6-yl)isoxazole-3-carboxamide] | < 20 nM | 20 to 100 nM |
| CCNC(=O)c1noc(-c2cc(C(C)C)c(O)cc2O)c1-c1ccc2c(c1)CCN(CCCNC(C)=O)C2 [Example 54] | 20 to 100 nM | > 100 nM |
| CCNC(=O)c1noc(-c2cc(C(C)C)c(O)cc2O)c1-c1ccc2c(c1)CCN(CCNC(C)=O)C2 [Example 53, 4-(2-(2-acetylaminoethyl)-1,2,3,4-tetrahydroisoquinolin-6-yl)-5-(2,4-dihydroxyl-5-isopropylphenyl)-N-ethylisoxazole-3-carboxamide] | 20 to 100 nM | > 100 nM |
| CCNC(=O)c1noc(-c2cc(C(C)C)c(O)cc2O)c1-c1ccc2c(c1)CCN(CC(C)C)C2 [Example 52, 5-(2,4-dihydroxyl-5-isopropylphenyl)-N-ethyl-4-(2-isobutyl-1,2,3,4-tetrahydroisoquinolin-6-yl)isoxazole-3-carboxamide] | 20 to 100 nM | 20 to 100 nM |

More lines, now with the values ahead:

| IC50 (HSP90α) | EC50 [1] | SMILES |
| --- | --- | --- |
| < 20 nM | < 20 nM | CNC(=O)c1onc(-c2cc(C(C)C)c(O)cc2O)c1-c1ccc2c(c1)CCN(C)C2 [Example 62, 3-(2,4-dihydroxyl-5-isopropylphenyl)-N-methyl-4-(2-methyl-1,2,3,4-tetrahydroisoquinolin-6-yl)isoxazole-5-carboxamide] |
| < 20 nM | 20 to 100 nM | CCNC(=O)c1noc(-c2cc(C(C)C)c(O)cc2O)c1-c1ccc2c(c1)CCN(C)CC2 [Example 25, 5-(2,4-dihydroxyl-5-isopropylphenyl)-N-ethyl-4-(3-methyl-2,3,4,5-tetrahydro-1H-benzo[d]azepin-7-yl)isoxazole-3-carboxamide] |
| < 20 nM | 20 to 100 nM | COCCNC(=O)c1noc(-c2cc(C(C)C)c(O)cc2O)c1-c1ccc2c(c1)CCN(C)C2 [Example 41, 5-(2,4-dihydroxyl-5-isopropylphenyl)-N-(2-methoxyethyl)-4-(2-methyl-1,2,3,4-tetrahydroisoquinolin-6-yl)isoxazole-3-carboxamide] |
| < 20 nM | 20 to 100 nM | CCNC(=O)c1noc(-c2cc(C(C)C)c(O)cc2O)c1-c1ccc2c(c1)CCN(CC)C2 [Example 49, 5-(2,4-dihydroxyl-5-isopropylphenyl)-N-ethyl-4-(2-ethyl-1,2,3,4-tetrahydroisoquinolin-6-yl)isoxazole-3-carboxamide] |
| < 20 nM | < 20 nM | CCNC(=O)c1onc(-c2cc(C(C)C)c(O)cc2O)c1-c1ccc2c(c1)CCN(CCF)C2 [Example 71] |
| < 20 nM | 20 to 100 nM | CCNC(=O)c1noc(-c2cc(C3CC3)c(O)cc2O)c1-c1ccc2c(c1)CCN(C)C2 [Example 35, 5-(5-cyclopropyl-2,4-dihydroxyl-phenyl)-N-ethyl-4-(2-methyl-1,2,3,4-tetrahydroisoquinolin-6-yl)isoxazole-3-carboxamide] |
| < 20 nM | < 20 nM | CCNC(=O)c1onc(-c2cc(C(C)C)c(O)cc2O)c1-c1ccc2c(c1)CCN(C(C)C)C2 [Example 68, 3-(2,4-dihydroxyl-5-isopropylphenyl)-N-ethyl-4-(2-isopropyl-1,2,3,4-tetrahydroisoquinolin-6-yl)isoxazole-5-carboxamide] |
| < 20 nM | < 20 nM | CC(C)c1cc(-c2noc(C(=O)NCCO)c2-c2ccc3c(c2)CCN(C)C3)c(O)cc1O [Example 64, 3-(2,4-dihydroxyl-5-isopropylphenyl)-N-(2-hydroxylethyl)-4-(2-methyl-1,2,3,4-tetrahydroisoquinolin-6-yl)isoxazole-5-carboxamide] |
| < 20 nM | 20 to 100 nM | CCNC(=O)c1onc(-c2cc(C(C)C)c(O)cc2O)c1-c1ccc2cnccc2c1 [Example 29, 3-(2,4-dihydroxyl-5-isopropylphenyl)-N-ethyl-4-(isoquinolin-6-yl)isoxazole-5-carboxamide] |
